Measurements as given in publication PMC4352855 (Scientific Reports, 2015).
Entries after “also recorded” stand apart in the source; their conditions may differ.

Columns and labels:
Y427A-LLO = target: T1, Y427A-LLO (Listeria monocytogenes serovar 1/2a, UniProt P13128, Y427A); format: biochemical; conditions: mutant Y427A compared with LLO, Fig. 2b
T1 construct: His6 (C); made in house; host or cells: Escherichia coli BL21(DE3)

V428A-LLO = target: T2, V428A-LLO (Listeria monocytogenes serovar 1/2a, UniProt P13128, V428A); format: biochemical; conditions: mutant V428A compared with LLO, Fig. 2b
T2 construct: His6 (C); made in house; host or cells: Escherichia coli BL21(DE3)

S466A-LLO = target: T3, S466A-LLO (Listeria monocytogenes serovar 1/2a, UniProt P13128, S466A); format: biochemical; conditions: mutant S466A compared with LLO, Fig. 2b
T3 construct: His6 (C); made in house; host or cells: Escherichia coli BL21(DE3)

S467A-LLO = target: T4, S467A-LLO (Listeria monocytogenes serovar 1/2a, UniProt P13128, S467A); format: biochemical; conditions: mutant S467A compared with LLO, Fig. 2b
T4 construct: His6 (C); made in house; host or cells: Escherichia coli BL21(DE3)

L. monocytogenes = conditions: cited from earlier work
LLO = target: T5, LLO (Listeria monocytogenes serovar 1/2a, UniProt P13128); conditions: cited from earlier work
T5 construct: His6 (C); made in house; host or cells: Escherichia coli BL21(DE3)

| SMILES | sensitivity to Myr in the inhibition of hemolytic activity (Y427A-LLO) | sensitivity to Myr in the inhibition of hemolytic activity (V428A-LLO) | sensitivity to Myr in the inhibition of hemolytic activity (S466A-LLO) | sensitivity to Myr in the inhibition of hemolytic activity (S467A-LLO) | antimicrobial activity (L. monocytogenes) | effect on hemolytic activity of LLO (LLO) |
| --- | --- | --- | --- | --- | --- | --- |
| O=c1c(O)c(-c2cc(O)c(O)c(O)c2)oc2cc(O)cc(O)c12 [Myr, myricetin] | less sensitive | less sensitive | less sensitive | less sensitive |  |  |
| O=c1c(O)c(-c2ccc(O)c(O)c2)oc2cc(O)ccc12 [fisetin] |  |  |  |  | without antimicrobial activity; also recorded: without anti-bacterial activity | inhibit its hemolytic activity; also recorded: attenuating the hemolytic activity of LLO |
